Results from ChEMBL document CHEMBL3046279, “Comparison of larvicidal, adulticidal and acaricidal activity of two geometrical butylidenephthalide isomers” (2006).
The source made the active and inactive calls. No cut-off for these calls is given here.

Assays:
Tyrophagus putrescentiae [1] = assay: Acaricidal activity against Tyrophagus putrescentiae assessed as mortality after 24 hr; assay type: functional
Dermatophagoides farinae [2] = assay: Acaricidal activity against Dermatophagoides farinae assessed as mortality at 5 ug/cm2 after 24 hr relative to control; assay type: functional
Tyrophagus putrescentiae [3] = assay: Acaricidal activity against Tyrophagus putrescentiae assessed as mortality at 50 ug/cm2 after 24 hr relative to control; assay type: functional
Drosophila melanogaster [4] = assay: Adulticidal activity against Drosophila melanogaster […] assessed as mortality measured per adult; assay type: functional
Tyrophagus putrescentiae [5] = assay: Ratio of N,N-diethyl-m-toulamide (DEET) LC50 to compound LC50 for Tyrophagus putrescentiae; assay type: functional
Tyrophagus putrescentiae [6] = assay: Acaricidal activity against Tyrophagus putrescentiae assessed as mortality at 20 ug/cm2 after 24 hr relative to control; assay type: functional
Dermatophagoides farinae [7] = assay: Acaricidal activity against Dermatophagoides farinae assessed as mortality after 24 hr relative to control; assay type: functional
Drosophila melanogaster [8] = assay: Larvicidal activity against Drosophila melanogaster larvae assessed as mortality administered through diet after 8 days; assay type: functional
Drosophila melanogaster [9] = assay: Ratio of rotenone LD50 to compound LD50 for adult Drosophila melanogaster; assay type: functional
Dermatophagoides farinae [10] = assay: Ratio of N,N-diethyl-m-toulamide (DEET) LC50 to compound LC50 for Dermatophagoides farinae; assay type: functional
Ctenocephalides felis = assay: Insecticidal activity against adult Ctenocephalides felis at 200 ug/cm2; assay type: functional, organism-based
Tyrophagus putrescentiae [11] = assay: Acaricidal activity against Tyrophagus putrescentiae assessed as mortality at 10 ug/cm2 after 24 hr relative to control; assay type: functional
Dermatophagoides farinae [12] = assay: Acaricidal activity against Dermatophagoides farinae assessed as mortality at 2.5 ug/cm2 after 24 hr relative to control; assay type: functional
Dermatophagoides farinae [13] = assay: Acaricidal activity against Dermatophagoides farinae assessed as mortality at 20 ug/cm2 after 24 hr relative to control; assay type: functional
Tyrophagus putrescentiae [14] = assay: Acaricidal activity against Tyrophagus putrescentiae assessed as mortality at 2.5 ug/cm2 after 24 hr relative to control; assay type: functional
Dermatophagoides farinae [15] = assay: Acaricidal activity against Dermatophagoides farinae assessed as mortality at 50 ug/cm2 after 24 hr relative to control; assay type: functional
Dermatophagoides farinae [16] = assay: Acaricidal activity against Dermatophagoides farinae assessed as mortality at 10 ug/cm2 after 24 hr relative to control; assay type: functional
Drosophila melanogaster [17] = assay: Ratio of rotenone LC50 to compound LC50 for Drosophila melanogaster larvae; assay type: functional
Tyrophagus putrescentiae [18] = assay: Acaricidal activity against Tyrophagus putrescentiae assessed as mortality at 100 ug/cm2 after 24 hr relative to control; assay type: functional
Dermatophagoides farinae [19] = assay: Acaricidal activity against Dermatophagoides farinae assessed as mortality at 30 ug/cm2 after 24 hr relative to control; assay type: functional
Tyrophagus putrescentiae [20] = assay: Acaricidal activity against Tyrophagus putrescentiae assessed as mortality at 30 ug/cm2 after 24 hr relative to control; assay type: functional
Dermatophagoides farinae [21] = assay: Acaricidal activity against Dermatophagoides farinae assessed as mortality at 40 ug/cm2 after 24 hr relative to control; assay type: functional
Tyrophagus putrescentiae [22] = assay: Acaricidal activity against Tyrophagus putrescentiae assessed as mortality at 5 ug/cm2 after 24 hr relative to control; assay type: functional

Row | SMILES | LC50 (Tyrophagus putrescentiae [1]) [microg/cm2] | mortality at 5 µg/cm2 (Dermatophagoides farinae [2]) [%] | mortality at 50 µg/cm2 (Tyrophagus putrescentiae [3]) [%] | LD50 (Drosophila melanogaster [4]) [µg] | RatioLC50 (Tyrophagus putrescentiae [5]) | mortality at 20 µg/cm2 (Tyrophagus putrescentiae [6]) [%] | LC50 (Dermatophagoides farinae [7]) [microg/cm2] | LC50 (Drosophila melanogaster [8]) [µM] | Ratio (Drosophila melanogaster [9]) | RatioLC50 (Dermatophagoides farinae [10]) | Activity (Ctenocephalides felis) | mortality at 10 µg/cm2 (Tyrophagus putrescentiae [11]) [%] | mortality at 2.5 µg/cm2 (Dermatophagoides farinae [12]) [%] | mortality at 20 µg/cm2 (Dermatophagoides farinae [13]) [%] | mortality at 2.5 µg/cm2 (Tyrophagus putrescentiae [14]) [%] | mortality at 50 µg/cm2 (Dermatophagoides farinae [15]) [%] | mortality at 10 µg/cm2 (Dermatophagoides farinae [16]) [%] | RatioLC50 (Drosophila melanogaster [17]) | other results
1 | CCC/C=C1/OC(=O)c2ccccc21 [(E)-BUTYLIDENEPHTHALIDE] | 25.56 | 51.6 | 57.2 | 0.94 | 0.64 | 52.9 | 4.67 | 2070 | 3.91 | 2.78 | inactive | 33 | 12.2 | 100 | 12.3 | 100 | 94.7 | 0.01 | 
2 | CCN(CC)C(=O)c1cccc(C)c1 [DIETHYLTOLUAMIDE] | 16.28 |  | 100 |  |  |  | 12.98 |  |  |  |  | 20.8 |  | 72.2 |  | 100 | 33.2 |  | mortality at 100 µg/cm2 (Tyrophagus putrescentiae [18]): 100%; mortality at 30 µg/cm2 (Dermatophagoides farinae [19]): 100%; mortality at 30 µg/cm2 (Tyrophagus putrescentiae [20]): 81.1%; mortality at 40 µg/cm2 (Dermatophagoides farinae [21]): 100%
3 | C=C(C)[C@H]1Cc2c(ccc3c2O[C@@H]2COc4cc(OC)c(OC)cc4[C@@H]2C3=O)O1 [ROTENONE] |  |  |  | 3.68 |  |  |  | 20 |  |  |  |  |  |  |  |  |  |  | 
4 | CCC/C=C1\OC(=O)c2ccccc21 [Z-butylidenephthalide] | 20.37 | 32.1 | 74.1 | 0.84 | 0.8 | 56.3 | 5.76 | 940 | 4.38 | 2.25 | inactive | 22.8 | 15.6 | 100 | 7.8 | 100 | 77.8 | 0.023 | mortality at 5 µg/cm2 (Tyrophagus putrescentiae [22]): 12.9%
